{
  "source": "patent US7585839B2",
  "about": "“Medical uses of intercellular communication facilitating compounds” (Zealand Pharma A/S, priority 2001, dated 2009)",
  "key": {"[1]": {"test_system": "phosphoinositol turnover in neonatal rat cardiomyocytes", "experiment": "Phosphoinositol turnover in primary cardiomyocyte cultures", "type": "cell-based", "details": "100 nM + noradrenaline 300 nM", "protocol": "Neonatal Wistar rats (1-2 days old) are used. Hank's calcium- and magnesium-free balanced salt solution, buffered with 10 mM HEPES is used for washing during cell separation procedures. The hearts are excised, the ventricles isolated and the tissue cut into small pieces. The myocardial cells are isolated by stepwise enzymatic degradation with collagenase 0.05%, as described by ^[35]. After repeated rounds of centrifugation and washing, the precipitated cells are resuspended in culture medium M199 with Earle's salt, 10% NCS, penicillin (75 U/mL), and streptomycin (75 U/mL) and pre-plated in a Petri dish for 90 minutes. The non-adherent cells are collected in the culture medium and plated in multidishes at 2.5*10^5 cells/well. The cultures are kept in a water-saturated CO2-incubator at 37° C. The cardiomyocyte cultures are used for analyses after 6-7 days.\nCardiomyocyte cultures are incubated for 48 hours in culture medium containing 4 μCi/mL myo-[2-^3H]inositol to label the inositol phospholipids. On the day of analysis the medium is replaced by a buffer solution containing lithium and incubated at 37° C., as described by Meier et al.^[36]. After at least five minutes this buffer is replaced by the same volume of buffer containing test compound and incubated for exactly 20 minutes. The reaction is stopped by rapid replacement of the buffer by ice cold 4% v/v perchloric acid (PCA) and incubation for at least 20 minutes at 0° C. The PCA-extract is neutralised and the [^3H]inositol phosphates are separated by anion-exchange chromatography using Amprep™ columns containing 100 mg SAX Quaternary amine. The [^3H]inositol mono-phosphates are eluted and radioactivity in the fraction measured by liquid scintillation counting.\nBefore adding test substances to the cultures, the cells are depleted of glucose and oxygen by incubating them in a N2-atmosphere in glucose-free lithium-buffer for 10 minutes at 37° C. Control cells are incubated likewise only at normal atmospheric conditions and in a buffer containing glucose."}, "human osteoblastic cells": {"test_system": "human osteoblastic cells", "experiment": "DDT-induced uncoupling in human osteoblast cells, Lucifer Yellow microinjection", "type": "cell-based", "details": "after DDT 13 μM 60 minutes; 10^−8 mol/l, 10 minutes; p<0.01", "protocol": "Human osteoblast cells: Cells were isolated from human bone marrow obtained by puncture of the posterior iliac spine of healthy volunteers (aged 20-36): 10-15 ml marrow material was collected in 15 ml PBS+Ca, Mg (Life Technologies, Cat.No. 14040) with 100 U/ml Heparin (Sigma, Cat.No. H-3149). The mononuclear fraction of the marrow was isolated on a Lymphoprep gradient (Nycomed Pharma, Cat.No. 1001967), by centrifugation at 2200 rpm for 30 min. After harvesting, the mononuclear fraction was washed once with culture medium and centrifuged at 1800 rpm for 10 min. Subsequently cells were counted and plated in culture medium at 8×10^6 cells/100 mm dish. hOB medium (all reagents obtained from Life Technologies): MEM w/o Phenol Red w/Glutamax (Cat.No. 041-93013) supplemented with 10% heat inactivated fetal calf serum (Cat.No. 10106) and 0.1% Penicillin/Streptomycin (Cat.No. 15140). Medium was changed the following day and the cells were cultured at 37° C. in 5%CO2 with medium change every 7 days. After 3-4 weeks of culture the cells had reached 70% confluence. The medium was then supplemented with 100 nM Dexamethasone (Sigma, Cat.No. D-4902) for 7 days. Cells were then plated for video imaging experiments: a 25 mm #1 glass coverslip was placed in a 35 mm dish (or each well of a 6-well multidish), cells were plated at 2.5×10^5 cells/coverslip and cultured for 2-3 days before use. […]"}, "[2]": {"test_system": "reentry ventricular tachycardia", "experiment": "Ventricular reentry arrhythmias in dogs after coronary artery occlusion", "type": "in vivo, dog", "details": "after the lowest dose (bolus 0.1 μg/kg; infusion 2 ng/kg/min) i.v.", "method": "Three dogs were studied in the anesthetized, open chest state to facilitate electrode placement for mapping. α-chloralose was given as a bolus (200 mg/kg) and then a constant infusion at 8 mg/kg/hr (dissolved in polyethylene glycol, MW=200). The femoral vein and artery was cannulated for administration of fluid and drugs and for measurement of ascending aortic pressure, respectively.\nThe sinus node was clamped and the atrial appendage was paced with a programmable stimulator with constant current outputs at two times diastolic threshold. Pacing rate was ≧200 b/min to control heart rates. […] Late ventricular diastolic threshold was measured during each intervention; the pacing current was four times threshold.\nTest sites were chosen along the shaft of 16 pole needles (J. Kassell, Fayetteville, N.C.); each pole completely surrounds the needle shaft to prevent directionality of needle orientation from recording of adjacent Purkinje strands. Six bipolar electrograms (1 mm spacing) were recorded sequentially down the shaft of the needle by amplifying up to 1000 times, filtering from 3-1300 Hz and recording via oscilloscope during atrial pacing. Four intramural electrograms are recorded on each multipolar needle. […] Inter-needle distance measured on epicardium varies over 6-10 mm in dogs weighing 12-16 kg. […]"}},
  "data": [
    {"substance": "Ac-D-Tyr-D-Pro-D-4Hyp-Gly-D-Ala-Gly-NH2 [Compound 2]", "values": [
      {"measurement": "increase in phospho-inositol turnover above the increase effected by noradrenaline alone", "setting": "[1]; anoxia and glucose deprivation", "result": "about 70%"},
      {"measurement": "effect on noradrenaline induced increase in phospho-inositol turnover", "setting": "[1]; control conditions", "result": "no further effect"},
      {"measurement": "cell-to-cell dye transfer, median number of cells", "setting": "human osteoblastic cells", "result": 8.3, "unit": "cells"},
      {"measurement": "inducibility of epicardial reentry VT", "setting": "[2]", "result": "no longer inducible"}
    ]}
  ]
}
